Data: the NIST ThermoML archive (doi:10.1016/j.jct.2017.04.007)

Conditions: Liquid; for speed of sound: Frequency=3 MHz, Pulse-echo method; for mass density: Vibrating tube method

CCOC(F)(C(F)(F)C(F)(F)C(F)(F)F)C(F)(C(F)(F)F)C(F)(F)F (configuration not stated) [2-trifluoromethyl-3-ethoxydodecafluorohexane]
Conditions	mass density [kg/m3]	speed of sound [m/s]
293.15 K, 100 kPa	1630.2	673.7
293.15 K, 10000 kPa	1654	–
293.15 K, 20000 kPa	1674.8	781.1
293.15 K, 30000 kPa	1693.3	–
293.15 K, 40000 kPa	1709.8	865.8
293.15 K, 50000 kPa	1724.9	–
293.15 K, 60000 kPa	1738.8	938.1
293.15 K, 70000 kPa	1751.7	–
293.15 K, 80000 kPa	1763.9	1001.8
293.15 K, 90000 kPa	1775.4	–
293.15 K, 100000 kPa	1786.2	1058
293.15 K, 110000 kPa	1796.5	–
293.15 K, 120000 kPa	1806.3	–
293.15 K, 130000 kPa	1815.8	–
293.15 K, 140000 kPa	1824.9	–
303.15 K, 100 kPa	1609.7	643.7
303.15 K, 10000 kPa	1635.5	–
303.15 K, 20000 kPa	1657.8	755.3
303.15 K, 30000 kPa	1677.3	–
303.15 K, 40000 kPa	1694.6	842.8
303.15 K, 50000 kPa	1710.4	–
303.15 K, 60000 kPa	1724.9	916.9
303.15 K, 70000 kPa	1738.4	–
303.15 K, 80000 kPa	1750.9	981.3
303.15 K, 90000 kPa	1762.8	–
303.15 K, 100000 kPa	1773.9	1038.5
303.15 K, 110000 kPa	1784.5	–
303.15 K, 120000 kPa	1794.5	–
303.15 K, 130000 kPa	1804.2	–
303.15 K, 140000 kPa	1813.4	–
313.15 K, 100 kPa	1588.6	616.7
313.15 K, 10000 kPa	1616.6	–
313.15 K, 20000 kPa	1640.2	732.2
313.15 K, 30000 kPa	1660.7	–
313.15 K, 40000 kPa	1678.9	822
313.15 K, 50000 kPa	1695.4	–
313.15 K, 60000 kPa	1710.5	897.4
313.15 K, 70000 kPa	1724.6	–
313.15 K, 80000 kPa	1737.1	963
313.15 K, 90000 kPa	1749.7	–
313.15 K, 100000 kPa	1761.2	1021.7
313.15 K, 110000 kPa	1772.2	–
313.15 K, 120000 kPa	1782.5	–
313.15 K, 130000 kPa	1792.5	–
313.15 K, 140000 kPa	1802	–
323.15 K, 100 kPa	1567.3	588.4
323.15 K, 10000 kPa	1597.6	–
323.15 K, 20000 kPa	1622.7	709.6
323.15 K, 30000 kPa	1644.3	–
323.15 K, 40000 kPa	1663.4	802.1
323.15 K, 50000 kPa	1680.6	–
323.15 K, 60000 kPa	1696.4	878.6
323.15 K, 70000 kPa	1710.9	–
323.15 K, 80000 kPa	1724.2	945.6
323.15 K, 90000 kPa	1736.8	–
323.15 K, 100000 kPa	1748.7	1004.9
323.15 K, 110000 kPa	1760	–
323.15 K, 120000 kPa	1770.6	–
323.15 K, 130000 kPa	1780.7	–
323.15 K, 140000 kPa	1790.5	–
333.15 K, 100 kPa	1545.6	561.4
333.15 K, 10000 kPa	1578.4	–
333.15 K, 20000 kPa	1605.3	688.4
333.15 K, 30000 kPa	1628.1	–
333.15 K, 40000 kPa	1648.2	783.3
333.15 K, 50000 kPa	1666.2	–
333.15 K, 60000 kPa	1682.6	861.5
333.15 K, 70000 kPa	1697.7	–
333.15 K, 80000 kPa	1711.6	929.1
333.15 K, 90000 kPa	1724.6	–
333.15 K, 100000 kPa	1736.9	989.3
333.15 K, 110000 kPa	1748.2	–
333.15 K, 120000 kPa	1759.3	–
333.15 K, 130000 kPa	1769.7	–
333.15 K, 140000 kPa	1779.5	–
343.15 K, 100 kPa	1523.6	534.8
343.15 K, 10000 kPa	1559.1	–
343.15 K, 20000 kPa	1587.8	667.7
343.15 K, 30000 kPa	1611.9	–
343.15 K, 40000 kPa	1633	765
343.15 K, 50000 kPa	1651.7	–
343.15 K, 60000 kPa	1668.7	844.9
343.15 K, 70000 kPa	1684.2	–
343.15 K, 80000 kPa	1698.6	913.5
343.15 K, 90000 kPa	1712	–
343.15 K, 100000 kPa	1724.4	974
343.15 K, 110000 kPa	1736.5	–
343.15 K, 120000 kPa	1747.8	–
343.15 K, 130000 kPa	1758.4	–
343.15 K, 140000 kPa	1768.6	–
353.15 K, 100 kPa	1501.6	509
353.15 K, 10000 kPa	1540	–
353.15 K, 20000 kPa	1570.5	647.6
353.15 K, 30000 kPa	1596	–
353.15 K, 40000 kPa	1618	747.5
353.15 K, 50000 kPa	1637.6	–
353.15 K, 60000 kPa	1655.2	828.9
353.15 K, 70000 kPa	1671.3	–
353.15 K, 80000 kPa	1686.2	898.5
353.15 K, 90000 kPa	1700	–
353.15 K, 100000 kPa	1712.9	960.3
353.15 K, 110000 kPa	1724.9	–
353.15 K, 120000 kPa	1736.6	–
353.15 K, 130000 kPa	1747.4	–
353.15 K, 140000 kPa	1757.8	–
363.15 K, 100 kPa	1478.1	–
363.15 K, 10000 kPa	1520.4	–
363.15 K, 20000 kPa	1553	–
363.15 K, 30000 kPa	1579.9	–
363.15 K, 40000 kPa	1603	–
363.15 K, 50000 kPa	1623.4	–
363.15 K, 60000 kPa	1641.7	–
363.15 K, 70000 kPa	1658.3	–
363.15 K, 80000 kPa	1673.6	–
363.15 K, 90000 kPa	1687.9	–
363.15 K, 100000 kPa	1701.2	–
363.15 K, 110000 kPa	1713.7	–
363.15 K, 120000 kPa	1725.3	–
363.15 K, 130000 kPa	1736.6	–
363.15 K, 140000 kPa	1747.3	–
373.15 K, 100 kPa	1454.4	–
373.15 K, 10000 kPa	1500.9	–
373.15 K, 20000 kPa	1535.8	–
373.15 K, 30000 kPa	1564.2	–
373.15 K, 40000 kPa	1588.4	–
373.15 K, 50000 kPa	1609.6	–
373.15 K, 60000 kPa	1628.5	–
373.15 K, 70000 kPa	1645.8	–
373.15 K, 80000 kPa	1661.7	–
373.15 K, 90000 kPa	1676.4	–
373.15 K, 100000 kPa	1689.9	–
373.15 K, 110000 kPa	1702.8	–
373.15 K, 120000 kPa	1714.7	–
373.15 K, 130000 kPa	1726.2	–
373.15 K, 140000 kPa	1737.1	–
383.15 K, 100 kPa	1430.4	–
383.15 K, 10000 kPa	1481.2	–
383.15 K, 20000 kPa	1518.4	–
383.15 K, 30000 kPa	1548.4	–
383.15 K, 40000 kPa	1573.8	–
383.15 K, 50000 kPa	1595.9	–
383.15 K, 60000 kPa	1615.5	–
383.15 K, 70000 kPa	1633.3	–
383.15 K, 80000 kPa	1649.6	–
383.15 K, 90000 kPa	1664.6	–
383.15 K, 100000 kPa	1678.5	–
383.15 K, 110000 kPa	1691.6	–
383.15 K, 120000 kPa	1704	–
383.15 K, 130000 kPa	1715.7	–
383.15 K, 140000 kPa	1726.8	–
393.15 K, 100 kPa	1405.6	–
393.15 K, 10000 kPa	1461.3	–
393.15 K, 20000 kPa	1500.9	–
393.15 K, 30000 kPa	1532.5	–
393.15 K, 40000 kPa	1559	–
393.15 K, 50000 kPa	1581.9	–
393.15 K, 60000 kPa	1602.2	–
393.15 K, 70000 kPa	1620.6	–
393.15 K, 80000 kPa	1637.1	–
393.15 K, 90000 kPa	1652.8	–
393.15 K, 100000 kPa	1667.1	–
393.15 K, 110000 kPa	1680.5	–
393.15 K, 120000 kPa	1693.2	–
393.15 K, 130000 kPa	1705.1	–
393.15 K, 140000 kPa	1716.3	–
